Laboratory results reported in BigSolDB 2.1.

Nc1ccc(S(=O)(=O)Nc2ncccn2)cc1
solubility (mole fraction)
Settings	278.15 K	283.15 K	288.15 K	293.15 K	298.15 K	303.15 K	308.15 K	313.15 K	318.15 K
in acetonitrile	0.000316	0.000385	0.000465	0.000532	0.000602	0.000666	0.000775	0.000865	0.000935
in methanol	7.1e-05	9.5e-05	0.000132	0.000162	0.000191	0.000236	0.00029	0.00034	0.000384
